Among the data in patent publication US8178668B2, “2-aminopyridine kinase inhibitors” (OSI Pharmaceuticals, LLC, priority 2008, dated 2012) are IC50 values, retold here.

pIC50: −log10 of the molar value.

One test concerns the target RON (human) (Homo sapiens, UniProt Q04912). In words: RON kinase AlphaScreen assay (Km of ATP). The following applies: ATP at Km; at least duplicate experiments. It is filed as biochemical. Put shortly: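 AlphaScreen with PT66 donor/acceptor beads, read after 1 h, detected phosphorylation of biotinylated poly(Glu,Tyr) by human RON. Enzyme-started reactions ran 30 min at room temperature with ATP at Km. Buffer was HEPES pH 7.4 with MgCl2, glycerol, vanadate and 1% DMSO.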

The next test deals with MET (human) (Homo sapiens, UniProt P08581). In words: MET kinase AlphaScreen assay (Km of ATP). Type of test: biochemical. The following applies: ATP at Km; at least duplicate experiments. A digest of the protocol: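 AlphaScreen detection with PT66 beads (1 h) follows a 60 min room-temperature MET reaction. Substrate is 200 ng/μL biotinylated poly(Glu,Tyr), with ATP set at an enzyme-optimized concentration. Buffer is HEPES pH 7.4 with MgCl2, MnCl2 and 0.334 mM vanadate, compounds at 1% DMSO.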
Sequence of MET (human) (P08581 25-1390): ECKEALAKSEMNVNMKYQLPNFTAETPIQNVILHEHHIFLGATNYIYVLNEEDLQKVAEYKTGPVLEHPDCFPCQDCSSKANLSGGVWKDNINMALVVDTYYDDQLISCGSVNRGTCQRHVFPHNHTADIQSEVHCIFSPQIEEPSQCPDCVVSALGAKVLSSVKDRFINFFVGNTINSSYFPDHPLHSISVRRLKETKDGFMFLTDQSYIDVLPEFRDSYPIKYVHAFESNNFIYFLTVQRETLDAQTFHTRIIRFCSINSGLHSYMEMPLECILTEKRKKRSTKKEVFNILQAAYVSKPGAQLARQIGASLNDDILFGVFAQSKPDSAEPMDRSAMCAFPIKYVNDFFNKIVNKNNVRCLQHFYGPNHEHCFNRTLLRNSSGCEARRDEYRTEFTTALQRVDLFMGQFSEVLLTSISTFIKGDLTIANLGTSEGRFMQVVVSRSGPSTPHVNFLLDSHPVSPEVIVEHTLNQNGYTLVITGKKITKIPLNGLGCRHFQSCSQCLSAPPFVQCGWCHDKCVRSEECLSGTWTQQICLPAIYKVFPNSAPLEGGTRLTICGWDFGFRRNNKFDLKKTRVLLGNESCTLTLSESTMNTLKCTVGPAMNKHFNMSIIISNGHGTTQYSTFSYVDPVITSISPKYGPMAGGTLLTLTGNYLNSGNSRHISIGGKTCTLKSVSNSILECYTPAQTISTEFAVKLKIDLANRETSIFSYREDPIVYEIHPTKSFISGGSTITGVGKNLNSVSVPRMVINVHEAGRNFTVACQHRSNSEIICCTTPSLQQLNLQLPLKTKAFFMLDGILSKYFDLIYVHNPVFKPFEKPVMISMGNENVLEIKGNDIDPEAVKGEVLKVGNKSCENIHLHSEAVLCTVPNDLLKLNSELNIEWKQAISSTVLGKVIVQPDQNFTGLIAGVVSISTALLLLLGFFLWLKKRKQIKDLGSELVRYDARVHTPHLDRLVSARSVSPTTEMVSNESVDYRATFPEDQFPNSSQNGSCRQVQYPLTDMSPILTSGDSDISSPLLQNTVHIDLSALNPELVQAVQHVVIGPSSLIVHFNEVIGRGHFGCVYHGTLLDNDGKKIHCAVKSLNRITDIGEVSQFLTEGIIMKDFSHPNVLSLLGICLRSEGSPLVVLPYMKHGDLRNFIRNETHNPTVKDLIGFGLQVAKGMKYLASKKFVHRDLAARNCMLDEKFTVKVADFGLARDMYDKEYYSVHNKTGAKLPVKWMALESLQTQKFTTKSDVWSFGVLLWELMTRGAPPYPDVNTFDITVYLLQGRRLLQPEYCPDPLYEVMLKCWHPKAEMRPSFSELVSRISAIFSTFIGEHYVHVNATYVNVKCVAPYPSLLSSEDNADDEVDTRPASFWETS

Sequence of RON (human) (Q04912 25-1400): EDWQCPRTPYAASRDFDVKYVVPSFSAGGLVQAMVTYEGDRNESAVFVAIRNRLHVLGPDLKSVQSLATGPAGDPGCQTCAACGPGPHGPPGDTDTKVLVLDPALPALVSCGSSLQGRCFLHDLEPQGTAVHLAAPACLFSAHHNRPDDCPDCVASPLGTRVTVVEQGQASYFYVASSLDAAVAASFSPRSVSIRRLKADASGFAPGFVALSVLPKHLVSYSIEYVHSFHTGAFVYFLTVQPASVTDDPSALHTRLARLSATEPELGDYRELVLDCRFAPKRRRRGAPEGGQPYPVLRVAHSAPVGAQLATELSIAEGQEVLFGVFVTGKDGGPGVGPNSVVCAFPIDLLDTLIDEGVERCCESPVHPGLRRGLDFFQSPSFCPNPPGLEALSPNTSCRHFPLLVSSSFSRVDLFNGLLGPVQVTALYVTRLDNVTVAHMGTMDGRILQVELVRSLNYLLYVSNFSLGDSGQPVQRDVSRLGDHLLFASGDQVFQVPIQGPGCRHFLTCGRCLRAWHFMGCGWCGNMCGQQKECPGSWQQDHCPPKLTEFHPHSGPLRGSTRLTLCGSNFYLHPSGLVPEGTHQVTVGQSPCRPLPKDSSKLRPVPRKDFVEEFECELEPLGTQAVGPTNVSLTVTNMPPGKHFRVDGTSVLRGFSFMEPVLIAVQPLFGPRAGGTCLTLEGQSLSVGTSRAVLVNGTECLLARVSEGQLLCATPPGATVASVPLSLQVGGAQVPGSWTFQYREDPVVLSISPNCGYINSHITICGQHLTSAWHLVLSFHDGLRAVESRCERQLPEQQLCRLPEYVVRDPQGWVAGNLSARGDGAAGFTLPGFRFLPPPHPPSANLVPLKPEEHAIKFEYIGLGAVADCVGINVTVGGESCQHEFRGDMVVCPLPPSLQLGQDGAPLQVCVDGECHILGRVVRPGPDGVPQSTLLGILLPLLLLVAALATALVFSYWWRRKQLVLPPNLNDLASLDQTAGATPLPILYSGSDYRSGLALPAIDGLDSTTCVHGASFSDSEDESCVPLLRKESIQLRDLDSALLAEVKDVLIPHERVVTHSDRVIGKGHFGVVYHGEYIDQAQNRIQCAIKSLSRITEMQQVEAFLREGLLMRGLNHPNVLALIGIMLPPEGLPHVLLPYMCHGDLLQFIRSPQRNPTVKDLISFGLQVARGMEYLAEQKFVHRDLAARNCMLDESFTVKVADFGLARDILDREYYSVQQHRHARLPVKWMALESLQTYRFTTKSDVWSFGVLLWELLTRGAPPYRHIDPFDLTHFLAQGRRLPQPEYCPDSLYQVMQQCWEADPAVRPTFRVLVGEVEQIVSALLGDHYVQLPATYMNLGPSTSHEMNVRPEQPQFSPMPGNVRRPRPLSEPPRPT

As usually defined, the pIC50 is the negative decadic logarithm of the IC50, by convention in mol/L. A low value points to a high IC50. Consider `NC(=O)c1cccc(-c2cnc(N)c(-c3nc4ccccc4s3)c2)c1` [Example 196, 3-(6-Amino-5-benzothiazol-2-ylpyridin-3-yl)benzamide], for which the pIC50 on RON (human) and at MET (human) was 4.70 to 6.00 in each case.

For `Nc1ncc(-c2cnn(CCN3CCOCC3)c2)cc1-c1nc2ccccc2s1` [Example 197, 3-Benzothiazol-2-yl-5-[1-(2-morpholin-4-ylethyl)-1H-pyrazol-4-yl]pyridin-2-ylamine], the pIC50 on RON (human) and against MET (human) was 4.70 to 6.00 in each case.

Take `Nc1ncc(-c2ccc(C(=O)NC3CC3)cc2)cc1-c1nc2ccccc2s1` [Example 198, 4-(6-Amino-5-benzothiazol-2-ylpyridin-3-yl)-N-cyclopropylbenzamide]: the pIC50 on RON (human) is less than 4.70; at MET (human) it was 4.70 to 6.00.

For the compound `CNC(=O)c1ccc(-c2cnc(N)c(-c3nc4ccccc4s3)c2)cc1` [Example 199, 4-(6-Amino-5-benzothiazol-2-ylpyridin-3-yl)-N-methylbenzamide], the pIC50 on RON (human) and against MET (human) was 4.70 to 6.00 each time.

Regarding `Nc1ncc(-c2ccc(C(=O)O)cc2)cc1-c1nc2ccccc2s1` [Example 201, 4-(6-Amino-5-benzothiazol-2-ylpyridin-3-yl)-benzoic acid], the pIC50 on RON (human) and on MET (human) was 4.70 to 6.00 in each case.

As to `Nc1ncc(-c2ccc(C(=O)O)nc2)cc1-c1nc2ccccc2s1` [Example 202, 6′-Amino-5′-benzothiazol-2-yl-[3,3′]bipyridinyl-6-carboxylic acid], the pIC50 was 4.70 to 6.00 on RON (human) and 6.00 to 7.00 at MET (human).

Consider `Nc1ncc(-c2cccc(C(=O)N3CCCC3)c2)cc1-c1nc2ccccc2s1` [Example 204, [3-(6-Amino-5-benzothiazol-2-ylpyridin-3-yl)phenyl]pyrrolidin-1-ylmethanone], for which the results for the negative logarithm of the IC50 (pIC50) at RON (human) and against MET (human) were less than 4.70 and 4.70 to 6.00, respectively.

`CC(=O)NCCNC(=O)c1cccc(-c2cnc(N)c(-c3nc4ccccc4s3)c2)c1` [Example 205, N-(2-Acetylaminoethyl)-3-(6-amino-5-benzothiazol-2-ylpyridin-3-yl)benzamide]: the pIC50 against RON (human) and against MET (human) was 4.70 to 6.00 each time.

As for `Nc1ncc(-c2cccc(C(=O)N3CCCCC3)c2)cc1-c1nc2ccccc2s1` [Example 206, [3-(6-Amino-5-benzothiazol-2-ylpyridin-3-yl)phenyl]piperidin-1-ylmethanone], the values for the pIC50 against RON (human) and against MET (human) were less than 4.70 and 4.70 to 6.00, respectively.

Regarding `CCN(CC)CCNC(=O)c1cccc(-c2cnc(N)c(-c3nc4ccccc4s3)c2)c1` [Example 207, 3-(6-Amino-5-benzothiazol-2-ylpyridin-3-yl)-N-(2-diethylaminoethyl)benzamide], the pIC50 against RON (human) and on MET (human) was 4.70 to 6.00 in each case.

On to `C[C@@H]1CN(C(=O)c2cccc(-c3cnc(N)c(-c4nc5ccccc5s4)c3)c2)C[C@H](C)N1` [Example 208, [3-(6-Amino-5-benzothiazol-2-ylpyridin-3-yl)phenyl]-(cis-3,5-dimethylpiperazin-1-yl)methanone], for which the results for the pIC50 against RON (human) and on MET (human) were 4.70 to 6.00 and 6.00 to 7.00, respectively.

As to `Nc1ncc(-c2cccc(C(=O)NCCCN3CCCC3)c2)cc1-c1nc2ccccc2s1` [Example 209, 3-(6-Amino-5-benzothiazol-2-ylpyridin-3-yl)-N-(3-pyrrolidin-1-ylpropyl)benzamide], the negative-log IC50 (pIC50) against RON (human) and against MET (human) was 4.70 to 6.00 in each case.

Take `CN1CCC(N(C)C(=O)c2cccc(-c3cnc(N)c(-c4nc5ccccc5s4)c3)c2)CC1` [Example 210, 3-(6-Amino-5-benzothiazol-2-ylpyridin-3-yl)-N-methyl-N-(1-methylpiperidin-4-yl)benzamide]: the negative logarithm of the IC50 (pIC50) against RON (human) is 4.70 to 6.00; against MET (human), 6.00 to 7.00.

As for `Nc1ncc(-c2cccc(C(=O)N3CCN(CC(=O)N4CCCC4)CC3)c2)cc1-c1nc2ccccc2s1` [Example 211, 2-{4-[3-(6-Amino-5-benzothiazol-2-ylpyridin-3-yl)benzoyl]piperazin-1-pyrrolidin-1-yl}-1-ylethanone], the pIC50 against RON (human) and against MET (human) was 4.70 to 6.00 throughout.
